In publication PMC11778240, “Synthesis and preclinical evaluation of tigilanol tiglate analogs as latency-reversing agents for the eradication of HIV” (Science Advances, 2025):

Legend:
[1] = system: NF-κB pathway; test: NF-κB activation assay, A549 cells with SEAP reporter; assay type: cell-based, Human; settings: 24 hours after dosing, A549 cells
Description: As a high-throughput method of screening compounds for their ability to get into cells and activate immunological pathways related to HIV latency reversal ([46], [70]), we conducted an NF-κB reporter assay using A549 cells stably integrated with a secreted embryonic alkaline phosphatase reporter under the control of a promoter fused to five NF-κB binding sites (Fig. 7B) ([48], [70], [71]).
Human A549-Dual™ Cells supplied by InvivoGen (Cat. code a549d-nfis) and CHO-K1 cells were passaged when about 90% confluency was reached (approximately every three days). With each passage, media was aspirated from the cell layer, which was then washed with PBS. Following aspiration of the PBS, cells were detached from the culture flask with 0.25% GibcoTM Trypsin-EDTA and transferred to a 50 mL conical, which was volumed up with complete pre-warmed DMEM (4.5 g/L glucose, 10% FBS, and 1% Pen-Strep-Glutamine (100 X, 50 mg/mL)) or Ham's F-12K (Kaighn's) Medium supplemented with 10% FBS and 1% Pen-Strep (100 X, 50 mg/mL).
This conical was spun down at 1800 rpm for 3 minutes, the supernatant was removed, and cells were resuspended in their respective fresh, pre-warmed media. To count cells, 10 μL of resuspended cells were added to a sterile microcentrifuge tube and mixed with 10 μL of trypan blue after which 10 μL of the mixture was pipetted into a Countess chamber slide. A Countess™ 3 Automated Cell Counter was subsequently utilized to determine cell viability and concentration.
1 x 10^6 cells were seeded with each passage into a T75 culture flask, and cells were incubated at […]
Human A549 lung carcinoma cells (InvivoGen Cat. code a549d-nfis), stably integrated with a secreted embryonic alkaline phosphatase (SEAP) reporter, allow for the activity of the NF-κB pathway to be monitored. The SEAP reporter is under control of the interferon β (IFN-β) minimal promoter, which is fused to five NF-κB binding sites.
5 × 10^4 A549 cells were plated on Corning® 96 Well TC-Treated Microplates (CLS3595) in 180 μl of pre-warmed DMEM (4.5 g/L glucose, 10% heat-inactivated FBS (30 min at 56 ℃), and 1% Pen-Strep-Glutamine (100 X, 50 mg/mL)). Note that if cells were grown in media containing FBS that is not heat-inactivated, media will contain alkaline phosphatase. In this case, all supernatant must thoroughly be aspirated from the cell pellet obtained after centrifugation before resuspending cells in media containing heat inactivated FBS for plating. Following incubation at 37 °C in 5% CO2 for approximately 24 hours to allow for cell adherence onto the 96 well plate, 1.8 μL of each compound dissolved in DMSO was added in quadruplicate to their respective wells to achieve a final compound concentration of 1500 nM, 500 nM, or 50 nM. 1.8 μL of DMSO was added to wells as negative controls while wells treated with EBC-46 served as positive controls. 24 hours following compound addition, 180 μL of QUANTI-BlueTM Solution (InvivoGen Cat. code rep-qbs)- medium containing QB buffer and QB Reagent for detection and quantification of alkaline phosphatase- were added into wells on a new clear flat-bottom 96-well plate. 20 μL of supernatant of either SEAP-expressing cells incubated with compound or SEAP-expressing cells incubated with DMSO only were added to the wells in the new 96-well plate containing QUANTI-BlueTM Solution. Supernatant and QUANTI-BlueTM Solution were incubated at 37 °C in 5% CO2 for approximately an hour and a half. Following incubation, optical density (OD) at 630 nm was measured for each well using a BioTek Synergy H1 microplate reader under normal read speed and with a delay of 100 msec.

[2] = system: J-Lat clone 10.6 cells; test: J-Lat HIV latency reversal assay (GFP expression); assay type: cell-based, Human; settings: J-Lat 10.6; for HIV latency reversal time course in words: over 48 hours
Description: Having shown that our lead compounds bind cell-free PKC isoforms, enter cells, translocate PKC-GFP fusion proteins, and activate NF-κB transcription factors, we next set out to determine whether our analogs were capable of reversing HIV from latency. We performed in vitro assays using T lymphocyte J-Lat clone 10.6, which contains a latent near full-length replication-incompetent integrated HIV DNA genome ([72]). J-Lat 10.6 lacks two viral genes, env and nef, which encode for the envelope protein and an accessory protein, respectively, and thus cannot initiate a spreading HIV infection. The integrated HIV provirus also encodes a GFP reporter gene, allowing latency reversal to be measured by quantification of GFP expression (fig. S1). […] In this latency reversal assay, we quantified GFP expression 48 hours after compound addition and observed bryostatin 1 to be maximally effective at concentrations of 40 nM or higher with latency reversal in 12% of cells (Fig. 8). Given the efficacy of bryostatin 1 as an LRA ([73], [74]), EBC-46 and many of its analogs tested in this J-Lat assay induced latency reversal in >90% of cells. […] SUW427, an esterase-releasable prodrug of EBC-46, also performed similarly to EBC-46 with a maximum efficacy of latency reversal in >90% of cells at a dose of 250 nM. […] The gradual release of EBC-46 from its prodrug form provides an alternative mode of administration that avoids the bolus effect associated with rapid drug administration ([17]). […] This is consistent with its lack of activity in the NF-κB activation assay and its design as a negative control as it is structurally similar to EBC-46 but unable to bind to the C1 domain of PKC at the concentrations used in this assay as it lacks a complete pharmacophore.
HIV latency reversal in-vitro assay
Human T Lymphocyte J-Lat Full Length Cell Line 10.6 (cat #9849) was obtained through the NIH HIV Reagent Program, Division of AIDS, NIAID, NIH and was contributed to the NIH HIV Reagent Program by Dr. Eric Verdin (70). J-Lat 10.6 cells were plated at 5 × 10^5 cells in 180 μL of RF10 media consisting of RPMI media supplemented with 1% Penicillin/Streptomycin and 10% Fetal Bovine Serum (FBS) in 96 -well U -bottom plates. J -Lat 10.6 cells were then stimulated for 48 hr by adding 20 μL of newly designed and synthesized tigilanol tiglate analogs, PKC modulators (bryostatin 1) as our positive control or med ia only (mock) as our negative control. Our negative control was RF10 media as the tigilanol tiglate analogs were freshly diluted with RF10 prior to plating. The final volume was 200 μL per well. Experiments were performed in three independent biological replicates, each completed in technical duplicates (n = 6). After 48 hr stimulation, 96 - well U -bottom plates were centrifuged at 296 RCF for 7 minutes to pellet cells, which were resusp ended in 200 μL of freshly prepared 2% paraformaldehyde (PFA) in PBS. GF P expression was measured 24 -hours post -fixation using the FITC channel on a LSR Fortessa (BD Biosciences) flow cytometer. Data analysis was conducted with FlowJo software version 10.8.1.

[3] = system: latent HIV; settings: cited from earlier work
[4] = system: HIV; settings: HIV-infected, ART-treated humanized mice, cited from earlier work

CCC/C=C/C=C/C(=O)O[C@H]1/C(=C/C(=O)OC)C[C@H]2C[C@H]([C@@H](C)O)OC(=O)C[C@H](O)C[C@@H]3C[C@H](OC(C)=O)C(C)(C)[C@](O)(C[C@@H]4C/C(=C/C(=O)OC)C[C@H](/C=C/C(C)(C)[C@]1(O)O2)O4)O3 [bryostatin 1, reference compound]
NF-κB activation (optical density, 630 nm) ([1]; 50 nM): 0.47 optical density, 630 nm
NF-κB activation (optical density, 630 nm) ([1]; 500 nM): 0.41 optical density, 630 nm
latency reversal, % of cells ([2]; maximally effective at 40 nM or higher, 48 hours): 12 % of cells

prostratin-C13-naphthyl acetate
potency as an LRA relative to prostratin [3]: > 130 fold

C=C1C[C@H]2C[C@]3(O)O[C@H](C[C@@H](O)CC(=O)O[C@@H](CO)C[C@@H]4C/C(=C\C(=O)OC)[C@H](OC(=O)CCCCCCC)[C@@](O)(O4)C(C)(C)/C=C/[C@@H](C1)O2)C[C@H](OC(C)=O)C3(C)C [SUW133]
animals not rebounding in vivo after ART discontinuation ([4]; with natural killer cells as kill arm): 40%
effect on HIV rebound in words ([4]; administered alone): capable of delaying rebound when administered alone

CC=C(C)C(=O)OC1C(C)C2(O)C(C3OC3(COC(=O)OCc3ccc(OC(=O)OC)cc3)C(O)C3(O)C(=O)C(C)=CC32)C2C(C)(C)C12OC(=O)C(C)CC (centres unmarked) [SUW427]
NF-κB activation (optical density, 630 nm) ([1]; 50 nM): 0.33 optical density, 630 nm
NF-κB activation (optical density, 630 nm) ([1]; 500 nM): 0.64 optical density, 630 nm
HIV latency reversal time course in words ([2]; 100 nM): clear delayed HIV latency reversal
maximal latency reversal, % of cells ([2]; 250 nM, 48 hours): > 90 % of cells
HIV latency reversal time course in words ([2]; 250 nM): almost converged with its parent compound at all time points and reached maximal latency reversal
